From ChEMBL document CHEMBL5584250, “5-HT6 receptor neutral antagonists protect astrocytes: A lesson from 2-phenylpyrrole derivatives” (Eur J Med Chem, 2024)

Tests used:
[1] = target: 5-hydroxytryptamine receptor 7 (Homo sapiens, UniProt P34969); assay: Displacement of [3H]-5-CT from human 5-HT7 receptor extracted from HEK293 cell membrane by microbeta plate reader analysis; assay type: cell membranes
in vitro [2] = details: rat, microsomes
[3] = Drug metabolism in rat liver microsomes assessed as hydroxylation mediated metabolite formation by UPLC-MS analysis; assay type: ADME, Microsome
[4] = target: 5-hydroxytryptamine receptor 6 (Homo sapiens, UniProt P50406)
Description: Displacement of [3H]-LSD from human 5-HT6 receptor extracted from HEK293 cell membrane by microbeta plate reader analysis

in vitro [5] = details: rat, microsomes; remark: listed apart in the source
[6] = target: 5-hydroxytryptamine receptor 2A (Homo sapiens, UniProt P28223); assay: Displacement of [3H]-ketanserin from human 5-HT2A receptor extracted from CHO-K1 cell membrane by microbeta plate reader analysis; assay type: cell membranes
[7] = target: T1, 5-hydroxytryptamine receptor 1A (Homo sapiens, UniProt P08908); assay: Displacement of [3H]-8-OH-DPAT from human 5-HT1A receptor extracted from HEK293 cell membrane by microbeta plate reader analysis; assay type: cell membranes
T1 sequence (P08908 whole entry): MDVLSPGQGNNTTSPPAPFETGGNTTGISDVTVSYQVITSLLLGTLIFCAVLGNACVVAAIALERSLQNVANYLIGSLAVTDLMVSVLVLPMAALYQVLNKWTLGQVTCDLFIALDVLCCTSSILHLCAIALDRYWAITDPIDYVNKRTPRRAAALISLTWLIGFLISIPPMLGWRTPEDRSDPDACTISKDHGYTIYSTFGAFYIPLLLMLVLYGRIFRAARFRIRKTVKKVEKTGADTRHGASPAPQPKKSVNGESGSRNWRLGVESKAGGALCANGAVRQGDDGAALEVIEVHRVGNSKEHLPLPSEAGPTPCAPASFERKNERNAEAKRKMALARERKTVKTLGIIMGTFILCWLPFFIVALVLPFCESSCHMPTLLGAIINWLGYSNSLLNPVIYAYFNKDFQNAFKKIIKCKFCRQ

D(2) dopamine receptor = D(2) dopamine receptor (Homo sapiens, UniProt P14416); assay: Displacement of [3H]-raclopride from human D2L receptor extracted from HEK293 cell membrane by microbeta plate reader analysis; assay type: cell membranes
[8] = target: hERG (KCNH2) potassium channel (Homo sapiens, UniProt Q12809); assay: Inhibition of hERG potassium channel at 1 uM relative to control; assay type: toxicity
[9] = Cytotoxicity against human SH-SY5Y cells incubated for 3 hrs by MTT assay; assay type: toxicity, cell-based
[10] = Drug metabolism in rat liver microsomes by UPLC-MS analysis; assay type: ADME, Microsome
[11] = Cytotoxicity against human astrocytes incubated for 3 hrs by MTT assay; assay type: toxicity, cell-based, Astrocyte
CYP3A4 = CYP3A4 (Homo sapiens, UniProt P08684); assay: Inhibition of CYP3A4 (unknown origin) at 10 uM relative to control; assay type: ADME
[12] = Cytotoxicity against mouse C8D1A cells incubated for 3 hrs by MTT assay; assay type: toxicity, cell-based, C8-D1A
[13] = Cytotoxicity against rat PC12 cells incubated for 3 hrs by MTT assay; assay type: toxicity, cell-based, PC-12

5-hydroxytryptamine receptor 6, sequence (P50406 whole entry): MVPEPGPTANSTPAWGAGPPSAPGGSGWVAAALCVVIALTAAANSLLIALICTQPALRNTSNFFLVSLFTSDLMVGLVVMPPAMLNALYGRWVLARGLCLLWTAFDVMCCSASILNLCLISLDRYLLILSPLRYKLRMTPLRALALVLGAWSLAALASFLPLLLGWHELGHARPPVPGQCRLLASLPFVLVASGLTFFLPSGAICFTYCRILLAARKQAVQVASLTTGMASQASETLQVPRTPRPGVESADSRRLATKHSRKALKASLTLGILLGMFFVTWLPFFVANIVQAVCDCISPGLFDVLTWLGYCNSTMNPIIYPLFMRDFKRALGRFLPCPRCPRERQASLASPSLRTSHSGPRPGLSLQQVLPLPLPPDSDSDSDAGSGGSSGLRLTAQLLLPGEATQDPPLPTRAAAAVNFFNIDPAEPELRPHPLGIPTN
5-hydroxytryptamine receptor 2A, sequence (P28223 whole entry): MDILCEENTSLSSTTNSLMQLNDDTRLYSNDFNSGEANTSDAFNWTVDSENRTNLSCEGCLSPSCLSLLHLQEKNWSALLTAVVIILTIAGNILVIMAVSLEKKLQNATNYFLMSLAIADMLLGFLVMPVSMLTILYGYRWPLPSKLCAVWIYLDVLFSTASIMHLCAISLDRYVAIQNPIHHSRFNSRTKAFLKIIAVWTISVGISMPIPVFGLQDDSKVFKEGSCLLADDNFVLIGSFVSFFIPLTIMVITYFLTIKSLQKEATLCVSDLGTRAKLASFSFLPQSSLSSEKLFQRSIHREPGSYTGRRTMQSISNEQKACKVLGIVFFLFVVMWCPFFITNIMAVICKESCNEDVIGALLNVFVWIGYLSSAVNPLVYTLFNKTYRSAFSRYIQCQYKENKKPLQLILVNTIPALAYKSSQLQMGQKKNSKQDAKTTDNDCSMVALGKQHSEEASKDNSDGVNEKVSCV
5-hydroxytryptamine receptor 7, sequence (P34969 whole entry): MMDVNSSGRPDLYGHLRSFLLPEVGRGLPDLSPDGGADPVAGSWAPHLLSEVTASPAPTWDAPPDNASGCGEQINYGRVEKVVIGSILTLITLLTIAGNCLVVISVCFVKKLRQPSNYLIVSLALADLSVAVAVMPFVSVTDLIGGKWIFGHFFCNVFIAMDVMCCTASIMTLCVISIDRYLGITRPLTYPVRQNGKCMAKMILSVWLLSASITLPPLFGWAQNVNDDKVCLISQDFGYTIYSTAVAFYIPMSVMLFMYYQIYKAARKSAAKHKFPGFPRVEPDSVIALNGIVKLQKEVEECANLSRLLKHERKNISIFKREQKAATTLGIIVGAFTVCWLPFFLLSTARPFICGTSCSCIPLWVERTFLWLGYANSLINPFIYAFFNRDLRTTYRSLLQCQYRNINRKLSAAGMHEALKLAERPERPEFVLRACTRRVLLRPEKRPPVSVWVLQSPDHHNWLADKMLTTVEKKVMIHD
D(2) dopamine receptor, sequence (P14416 whole entry): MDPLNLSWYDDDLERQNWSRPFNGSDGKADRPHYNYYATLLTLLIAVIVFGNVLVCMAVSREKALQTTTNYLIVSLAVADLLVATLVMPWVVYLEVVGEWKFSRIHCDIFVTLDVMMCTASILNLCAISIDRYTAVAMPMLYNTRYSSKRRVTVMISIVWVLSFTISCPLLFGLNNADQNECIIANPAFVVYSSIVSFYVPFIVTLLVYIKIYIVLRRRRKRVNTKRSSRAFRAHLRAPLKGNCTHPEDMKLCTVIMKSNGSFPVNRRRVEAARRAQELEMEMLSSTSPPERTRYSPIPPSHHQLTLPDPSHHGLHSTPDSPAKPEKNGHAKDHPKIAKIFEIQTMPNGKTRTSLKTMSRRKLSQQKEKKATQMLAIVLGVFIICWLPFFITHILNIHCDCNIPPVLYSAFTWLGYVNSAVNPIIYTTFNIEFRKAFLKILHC
hERG (KCNH2) potassium channel, sequence (Q12809 whole entry): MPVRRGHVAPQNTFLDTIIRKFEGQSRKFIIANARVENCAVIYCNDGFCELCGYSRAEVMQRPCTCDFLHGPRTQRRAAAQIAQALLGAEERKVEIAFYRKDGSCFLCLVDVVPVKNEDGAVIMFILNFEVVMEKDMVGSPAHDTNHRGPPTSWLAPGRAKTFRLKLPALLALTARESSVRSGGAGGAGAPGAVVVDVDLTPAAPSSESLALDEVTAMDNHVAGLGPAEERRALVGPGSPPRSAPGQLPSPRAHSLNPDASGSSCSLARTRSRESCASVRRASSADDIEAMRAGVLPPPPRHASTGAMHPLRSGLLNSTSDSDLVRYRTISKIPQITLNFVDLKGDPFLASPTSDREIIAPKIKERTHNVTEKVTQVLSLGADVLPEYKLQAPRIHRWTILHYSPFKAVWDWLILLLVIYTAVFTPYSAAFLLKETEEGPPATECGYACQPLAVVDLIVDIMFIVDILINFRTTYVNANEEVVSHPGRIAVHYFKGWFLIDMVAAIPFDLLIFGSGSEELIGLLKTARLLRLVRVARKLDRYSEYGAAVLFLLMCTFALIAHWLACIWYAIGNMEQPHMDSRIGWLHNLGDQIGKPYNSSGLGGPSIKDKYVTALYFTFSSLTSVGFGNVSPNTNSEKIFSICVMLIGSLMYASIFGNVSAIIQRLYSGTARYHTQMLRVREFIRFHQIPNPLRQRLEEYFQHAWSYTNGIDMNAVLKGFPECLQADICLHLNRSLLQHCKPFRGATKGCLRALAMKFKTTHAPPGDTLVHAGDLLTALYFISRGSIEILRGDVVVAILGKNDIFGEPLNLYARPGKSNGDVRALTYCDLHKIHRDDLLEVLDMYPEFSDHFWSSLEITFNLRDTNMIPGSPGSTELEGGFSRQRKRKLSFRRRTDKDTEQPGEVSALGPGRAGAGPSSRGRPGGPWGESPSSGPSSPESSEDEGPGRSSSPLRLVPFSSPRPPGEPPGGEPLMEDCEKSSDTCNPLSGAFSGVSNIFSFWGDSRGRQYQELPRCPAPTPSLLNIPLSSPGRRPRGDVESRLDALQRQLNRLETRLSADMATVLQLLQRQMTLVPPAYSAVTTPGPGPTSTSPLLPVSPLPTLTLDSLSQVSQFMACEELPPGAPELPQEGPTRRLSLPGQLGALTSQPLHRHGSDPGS
CYP3A4, sequence (P08684 whole entry): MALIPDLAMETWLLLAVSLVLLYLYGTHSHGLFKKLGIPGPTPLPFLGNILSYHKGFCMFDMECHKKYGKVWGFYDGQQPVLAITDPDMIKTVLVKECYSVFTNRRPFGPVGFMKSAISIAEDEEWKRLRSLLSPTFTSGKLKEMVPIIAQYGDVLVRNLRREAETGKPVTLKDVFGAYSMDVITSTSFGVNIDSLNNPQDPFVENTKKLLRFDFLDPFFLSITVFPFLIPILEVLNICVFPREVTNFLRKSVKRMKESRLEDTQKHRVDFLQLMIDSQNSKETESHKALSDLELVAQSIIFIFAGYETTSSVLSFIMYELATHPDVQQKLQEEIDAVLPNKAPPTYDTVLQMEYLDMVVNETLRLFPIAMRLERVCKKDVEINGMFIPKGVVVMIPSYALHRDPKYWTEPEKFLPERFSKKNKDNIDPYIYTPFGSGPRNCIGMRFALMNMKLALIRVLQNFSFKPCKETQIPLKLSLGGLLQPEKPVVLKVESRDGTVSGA

| SMILES | Ki [1] [µM] | half-life at 1 h, 10 µM (in vitro [2]) [min] | Drug metabolism [3] | Ki [4] [µM] | microsomal CLint at 1 h, 10 µM (in vitro [5]) [µL/min/mg] | Ki [6] [µM] | Ki [7] [µM] | Ki (D(2) dopamine receptor) [µM] | Drug metabolism [10] | inhibition at 10 µM (CYP3A4) [%] | inhibition at 1 µM [8] [%] | IC50 at 3 h [9] [µM] | IC50 at 3 h [11] [µM] | IC50 at 3 h [12] [µM] | IC50 at 3 h [13] [µM] |
| --- | --- | --- | --- | --- | --- | --- | --- | --- | --- | --- | --- | --- | --- | --- | --- |
| O=C(NC1CCNCC1)c1ccn(S(=O)(=O)c2cccc(Cl)c2)c1-c1cccc(F)c1 | 84 |  |  |  |  | 10.6 | 68.6 | 7.69 |  |  |  |  |  |  |  |
| O=S(=O)(c1cccc(N2CCNCC2)c1)n1cccc1-c1cccc(F)c1 | 11.5 | 49.3 |  | 0.001 | 32.4 | 2.51 | 1.84 | 4.33 | Metabolite_Notdetected | 94 | 8 | 18.5 | 39.3 | 37.4 | 25.6 |
| O=S(=O)(c1cccc(N2CCNCC2)c1)n1cccc1-c1ccccc1 | 12.3 | 83.6 | Metabolite_Detected | 0.001 | 24.9 | 0.412 | 0.755 | 2.17 |  |  |  |  |  |  |  |
| COc1cccc(-c2cccn2S(=O)(=O)c2cccc(N3CCNCC3)c2)c1 | 11.6 | 36.7 |  | 0.001 | 56.7 | 0.655 | 0.916 | 5.2 | Metabolite_Notdetected |  |  |  |  |  |  |

Compounds with a lower Ki [1], results first:

| Ki [1] [µM] | half-life at 1 h, 10 µM (in vitro [2]) [min] | Drug metabolism [3] | Ki [4] [µM] | microsomal CLint at 1 h, 10 µM (in vitro [5]) [µL/min/mg] | Ki [6] [µM] | Ki [7] [µM] | Ki (D(2) dopamine receptor) [µM] | Drug metabolism [10] | inhibition at 10 µM (CYP3A4) [%] | SMILES | inhibition at 1 µM [8] [%] | IC50 at 3 h [9] [µM] | IC50 at 3 h [11] [µM] | IC50 at 3 h [12] [µM] | IC50 at 3 h [13] [µM] |
| --- | --- | --- | --- | --- | --- | --- | --- | --- | --- | --- | --- | --- | --- | --- | --- |
| 1.99 | 101 | Metabolite_Detected | 0.004 | 20.6 | 1.54 | 40.6 | 10.8 |  |  | O=S(=O)(c1cccc(NC2CCNCC2)c1)n1cccc1-c1ccccc1 |  |  |  |  |  |
| 1.32 | 15.3 | Metabolite_Detected | 0.027 | 109 | 15.9 | 2.47 | 2.7 |  |  | O=S(=O)(c1ccccc1)n1cccc1-c1cccc(N2CCNCC2)c1 |  |  |  |  |  |
